Data reported in PMC6900016, “Synthesis of Indomorphan Pseudo‐Natural Product Inhibitors of Glucose Transporters GLUT‐1 and ‐3” (Angewandte Chemie (International Ed. in English), 2019).

Experiments:
Assay in all cases: cells
Parameters in all cases: Cell growth inhibition, sulforhodamine B total protein staining
[1] = system: 786O; details: Homo sapiens, 786-0; 72 h growth; read-out: Cell growth inhibition IC50/µM
Summary of the method: (§1)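 72 h exposure of a 94-cell-line panel to Glupin; growth measured by sulforhodamine B total-protein staining after TCA fixation (10% adherent, 50% suspension/semi-adherent, 1 h at 4 °C). IC50 derived from growth inhibition.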

[2] = system: A375; details: Homo sapiens, A-375; 72 h growth; read-out: Cell growth inhibition IC50/µM
Summary of the method: as §1

[3] = system: CACO2; details: Homo sapiens, Caco-2; 72 h growth; read-out: Cell growth inhibition IC50/µM
Summary of the method: as §1

[4] = system: CAKI1; details: Homo sapiens, CAKI-1; 72 h growth; read-out: Cell growth inhibition IC50/µM
Summary of the method: as §1

[5] = system: CLS439; details: 72 h growth; read-out: Cell growth inhibition IC50/µM
Summary of the method: as §1

[6] = system: DU145; details: Homo sapiens, DU-145; 72 h growth; read-out: Cell growth inhibition IC50/µM
Summary of the method: as §1

[7] = system: HCT15; details: Homo sapiens, HCT-15; 72 h growth; read-out: Cell growth inhibition IC50/µM
Summary of the method: as §1

[8] = system: HELA; details: Homo sapiens, HeLa; 72 h growth; read-out: Cell growth inhibition IC50/µM
Summary of the method: as §1

[9] = system: HS578T; details: Homo sapiens, Hs-578T; 72 h growth; read-out: Cell growth inhibition IC50/µM
Summary of the method: as §1

[10] = system: IMR90; details: Homo sapiens, IMR-90; 72 h growth; read-out: Cell growth inhibition IC50/µM
Summary of the method: as §1

[11] = system: MCF7; details: Homo sapiens, MCF7; 72 h growth; read-out: Cell growth inhibition IC50/µM
Summary of the method: as §1

[12] = system: MDAMB231; details: Homo sapiens, MDA-MB-231; 72 h growth; read-out: Cell growth inhibition IC50/µM
Summary of the method: as §1

[13] = system: MDAMB435; details: Homo sapiens, MDA-MB-435; 72 h growth; read-out: Cell growth inhibition IC50/µM
Summary of the method: as §1

[14] = system: MINO; details: Homo sapiens, MINO; 72 h growth; read-out: Cell growth inhibition IC50/µM
Summary of the method: as §1

[15] = system: NCIH82; details: Homo sapiens, NCI-H82; 72 h growth; read-out: Cell growth inhibition IC50/µM
Summary of the method: as §1

[16] = system: RD; details: Homo sapiens, RD; 72 h growth; read-out: Cell growth inhibition IC50/µM
Summary of the method: as §1

[17] = system: SAOS2; details: Homo sapiens, SAOS-2; 72 h growth; read-out: Cell growth inhibition IC50/µM
Summary of the method: as §1

[18] = system: SKBR3; details: Homo sapiens, SK-BR-3; 72 h growth; read-out: Cell growth inhibition IC50/µM
Summary of the method: as §1

[19] = system: SKLMS1; details: Homo sapiens, SK-LMS-1; 72 h growth; read-out: Cell growth inhibition IC50/µM
Summary of the method: as §1

[20] = system: SKMEL28; details: Homo sapiens, SK-MEL-28; 72 h growth; read-out: Cell growth inhibition IC50/µM
Summary of the method: as §1

[21] = system: SKNAS; details: Homo sapiens, SK-N-AS; 72 h growth; read-out: Cell growth inhibition IC50/µM
Summary of the method: as §1

[22] = system: U87MG; details: Homo sapiens, U-87 MG; 72 h growth; read-out: Cell growth inhibition IC50/µM
Summary of the method: as §1

[23] = system: UMUC3; details: Homo sapiens, UMUC3; 72 h growth; read-out: Cell growth inhibition IC50/µM
Summary of the method: as §1

IC50 [2]: 0.659 µM
IC50 [3]: 3.51 µM
IC50 [6]: 0.317 µM
IC50 [7]: 0.407 µM
IC50 [8]: 1.25 µM
IC50 [11]: > 30 µM
IC50 [12]: 8.38 µM
IC50 [13]: 0.513 µM
IC50 [18]: > 30 µM
IC50 [19]: 0.699 µM
IC50 [20]: > 30 µM
IC50 [21]: 0.175 µM
IC50 [22]: > 30 µM
SMILES: CCOC(=O)Cn1c2c(c3ccccc31)C[C@@H]1C[C@H]2C(OC)CN1C(=O)c1cccnc1SC (single isomer, unassigned; (+)) [(+)-5a, Glupin]
IC50 [1]: 0.274 µM
IC50 [4]: 0.805 µM
IC50 [5]: 0.24 µM
IC50 [9]: 0.12 µM
IC50 [10]: > 30 µM
IC50 [14]: 1.77 µM
IC50 [15]: 1.17 µM
IC50 [16]: 0.842 µM
IC50 [17]: > 30 µM
IC50 [23]: 0.032 µM
